The target in the assay is T1, mouse TRPM3α2 (mTRPM3) ion channel (Mus musculus, UniProt J9SQF3).
T1 construct: expressed in transfected cells; host or cells: flip-in HEK293
Nature of the assay: Monitoring the TRPM3 ion channel driven Ca2+ uptake (Fluo-4 AM assay). It is filed as cell-based. The note with it: TRPM3 overexpressing flip-in HEK293 cells, channel stimulated with Pregnenolone sulfate (PS) 50 μM. As to the method:
Monitoring the TRPM3 ion channel driven Ca^2+ uptake.
In order to monitor the inhibition of the mouse TRPM3α2 (mTRPM3) ion channel by the compounds of the invention, a cellular system making use of an mTRPM3alpha2 or hTRPM3 overexpressing cell line (flip-in HEK293) was used. The TRPM3 channel was stimulated/opened with Pregnenolone sulfate (PS) (50 μM) which results in Ca^2+ influx.
For mTRPM3, the intracellular Ca^2+ was measured with a Calcium responsive dye, Fluor-4 AM ester (Invitrogen). Cells were cultured until a confluence of 80-90%, washed with Versene (Invitrogen) and detached from the surface by a short incubation with 0.05% Trypsin (Invitrogen). The trypsination process was stopped by the addition of complete cell culture medium (DMEM, glutamax,10% FCS,NEAA,Pen-Strep). Cells were collected and resuspended in Krebs buffer without Calcium at RT.
Prior the cell seeding (±2000 cells/well into a black, 384 well plate (Greiner)) the diluted compound was added in the assay plate, together with the PS dissolved in Krebs buffer containing Calcium. […] Directly after cell addition the plates were read on an Envision fluorescence reader (Perkin Elmer) by an Excitation of 485 nm and emission at 535 nm.
Channel inhibition was calculated compared to a non-PS stimulated control versus a condition stimulated with PS (50 μM) with vehicle. The ability of the compounds of the invention to inhibit this activity was determined as: Percentage inhibition=[1−((RFU determined for sample with test compound present−RFU determined for sample with positive control inhibitor) divided by (RFU determined in the presence of vehicle−RFU determined for sample with positive control inhibitor))]*100.
The activities of the Example compounds tested are depicted in the table below. The activity ranges A, B and C refer to IC50 values in the Fluo-4 AM assay as follows: “A”: IC50<1 μM; “B”: 1 μM≤IC50≤20 μM and “C”: IC50>20 μM

T1 sequence (J9SQF3 1-1709 isoform J9SQF3-12): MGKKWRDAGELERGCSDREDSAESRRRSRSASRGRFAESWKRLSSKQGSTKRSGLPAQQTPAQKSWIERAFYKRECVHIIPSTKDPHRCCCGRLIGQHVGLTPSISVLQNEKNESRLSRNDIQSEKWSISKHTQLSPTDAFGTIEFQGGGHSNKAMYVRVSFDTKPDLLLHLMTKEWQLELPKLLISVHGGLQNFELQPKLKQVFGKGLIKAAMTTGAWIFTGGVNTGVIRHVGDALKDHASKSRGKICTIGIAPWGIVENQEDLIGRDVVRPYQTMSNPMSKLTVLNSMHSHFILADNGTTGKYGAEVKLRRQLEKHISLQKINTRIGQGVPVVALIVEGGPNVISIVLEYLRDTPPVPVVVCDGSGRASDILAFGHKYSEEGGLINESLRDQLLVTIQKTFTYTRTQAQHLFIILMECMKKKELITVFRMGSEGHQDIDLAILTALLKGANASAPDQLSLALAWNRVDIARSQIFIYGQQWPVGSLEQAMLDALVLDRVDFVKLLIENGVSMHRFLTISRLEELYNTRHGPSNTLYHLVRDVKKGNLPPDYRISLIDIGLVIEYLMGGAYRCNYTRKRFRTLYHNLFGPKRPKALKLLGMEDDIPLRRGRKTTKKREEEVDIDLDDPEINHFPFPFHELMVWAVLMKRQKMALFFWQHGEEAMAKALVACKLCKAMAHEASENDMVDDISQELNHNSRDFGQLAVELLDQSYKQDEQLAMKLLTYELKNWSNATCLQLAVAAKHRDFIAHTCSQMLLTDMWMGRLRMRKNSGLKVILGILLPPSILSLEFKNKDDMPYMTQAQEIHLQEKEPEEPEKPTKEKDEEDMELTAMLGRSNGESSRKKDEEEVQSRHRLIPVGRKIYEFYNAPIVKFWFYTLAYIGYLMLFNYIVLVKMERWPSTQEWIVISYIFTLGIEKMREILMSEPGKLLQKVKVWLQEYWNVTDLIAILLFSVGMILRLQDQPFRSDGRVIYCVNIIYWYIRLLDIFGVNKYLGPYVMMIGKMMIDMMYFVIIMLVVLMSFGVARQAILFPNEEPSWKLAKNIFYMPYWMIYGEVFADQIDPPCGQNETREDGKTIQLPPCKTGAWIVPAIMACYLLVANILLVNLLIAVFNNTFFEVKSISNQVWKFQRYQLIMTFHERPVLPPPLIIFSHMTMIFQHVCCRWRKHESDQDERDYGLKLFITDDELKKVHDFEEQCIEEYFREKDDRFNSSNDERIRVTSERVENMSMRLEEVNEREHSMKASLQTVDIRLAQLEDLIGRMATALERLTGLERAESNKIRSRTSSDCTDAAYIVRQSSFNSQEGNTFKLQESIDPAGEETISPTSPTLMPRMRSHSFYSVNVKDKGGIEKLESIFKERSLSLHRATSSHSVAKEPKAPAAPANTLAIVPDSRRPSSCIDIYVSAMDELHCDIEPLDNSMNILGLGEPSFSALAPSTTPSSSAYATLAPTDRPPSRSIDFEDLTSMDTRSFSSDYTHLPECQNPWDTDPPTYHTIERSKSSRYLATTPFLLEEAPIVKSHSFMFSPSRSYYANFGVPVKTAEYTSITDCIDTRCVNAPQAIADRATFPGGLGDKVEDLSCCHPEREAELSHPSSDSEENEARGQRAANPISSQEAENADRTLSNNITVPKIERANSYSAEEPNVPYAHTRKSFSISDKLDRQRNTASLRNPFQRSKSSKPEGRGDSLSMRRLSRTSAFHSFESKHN

For `Cc1sc2ccc(OCc3ccccc3)cc2c1C(=O)NC1CCN(C)CC1` [Cpd 127, 5-(benzyloxy)-2-methyl-N-(1-methylpiperidin-4-yl)-1-benzothiophene-3-carboxamide], the IC50 fell in the range of 1000 to 20000 nM.
For `O=C(NCCN1CCOC1=O)c1c(C(F)F)sc2ccc(OCc3ccccc3)cc12` [Cpd 149, 5-(benzyloxy)-2-(difluoromethyl)-N-[2-(2-oxo-1,3-oxazolidin-3-yl)ethyl]-1-benzothiophene-3-carboxamide], the IC50 is more than 20000 nM.
To `Cc1ncsc1COc1ccc2sc(C)c(C(=O)NCC3CCC(=O)N3)c2c1` (centres unmarked) [Cpd 046, 2-methyl-5-[(4-methyl-1,3-thiazol-5-yl)methoxy]-N-[(5-oxopyrrolidin-2-yl)methyl]-1-benzothiophene-3-carboxamide] belongs less than 1000 nM; to `Cc1ncsc1COc1ccc2sc(C)c(C(=O)NCC(C)(C)N3CCOCC3)c2c1` [Cpd 044, 2-methyl-5-[(4-methyl-1,3-thiazol-5-yl)methoxy]-N-[2-methyl-2-(morpholin-4-yl)propyl]-1-benzothiophene-3-carboxamide], less than 1000 nM; to `Cc1ncc(COc2ccc3sc(C)c(C(=O)N[C@@H](C)C(N)=O)c3c2)s1` [Cpd 011, (2S)-2-({2-methyl-5-[(2-methyl-1,3-thiazol-5-yl)methoxy]-1-benzothiophen-3-yl}formamido)propanamide], less than 1000 nM.
`COc1ncccc1COc1ccc2sc(C)c(C(=O)NC3(CO)CC3)c2c1` [Cpd 142, N-[1-(hydroxymethyl)cyclopropyl]-5-[(2-methoxypyridin-3-yl)methoxy]-2-methyl-1-benzothiophene-3-carboxamide] had an IC50 of 1000 to 20000 nM.
Next, `CNC(=O)C(C)(CO)NC(=O)c1c(C)sc2ccc(OCc3cnc(C)s3)cc12` (single isomer, unassigned) [Cpd 132 - En1, 3-hydroxy-N,2-dimethyl-2-({2-methyl-5-[(2-methyl-1,3-thiazol-5-yl)methoxy]-1-benzothiophen-3-yl}formamido)propanamide]: less than 1000 nM.
`Cc1ncsc1COc1ccc2sc(C)c(C(=O)NC3CCN(C)C3)c2c1` (centres unmarked) [Cpd 126, 2-methyl-5-[(4-methyl-1,3-thiazol-5-yl)methoxy]-N-(1-methylpyrrolidin-3-yl)-1-benzothiophene-3-carboxamide]: the IC50 is less than 1000 nM.
In the case of `Cc1sc2ccc(OCc3ccccc3F)cc2c1C(=O)N[C@@H]1CCN(CCO)C1=O` [Cpd 055, 5-[(2-fluorophenyl)methoxy]-N-[(3R)-1-(2-hydroxyethyl)-2-oxopyrrolidin-3-yl]-2-methyl-1-benzothiophene-3-carboxamide], the IC50 lay within 1000 to 20000 nM.
Turning to `Cc1ncsc1COc1ccc2sc(C)c(C(=O)NCCN(C)C)c2c1` [Cpd 118, N-[2-(dimethylamino)ethyl]-2-methyl-5-[(4-methyl-1,3-thiazol-5-yl)methoxy]-1-benzothiophene-3-carboxamide], the IC50 is less than 1000 nM.
With `Cc1sc2ccc(OCc3ccccc3)cc2c1C(=O)NC1(CO)CC1` [Cpd 073, 5-(benzyloxy)-N-[1-(hydroxymethyl)cyclopropyl]-2-methyl-1-benzothiophene-3-carboxamide], the IC50 was in the range of 1000 to 20000 nM.
`Cc1ncsc1COc1ccc2sc(C)c(C(=O)NC3CC(F)(F)C3)c2c1` [Cpd 039, N-(3,3-difluorocyclobutyl)-2-methyl-5-[(4-methyl-1,3-thiazol-5-yl)methoxy]-1-benzothiophene-3-carboxamide] returned an IC50 of less than 1000 nM.
To `Cc1sc2ccc(OCc3ccccn3)cc2c1C(=O)NC1(C(N)=O)CCOCC1` [Cpd 071, 4-{2-methyl-5-[(pyridin-2-yl)methoxy]-1-benzothiophene-3-amido}oxane-4-carboxamide] belongs less than 1000 nM; to `Cc1sc2ccc(OCc3ccccn3)cc2c1C(=O)N[C@@H](CO)C(N)=O` [Cpd 052, (2S)-3-hydroxy-2-({2-methyl-5-[(pyridin-2-yl)methoxy]-1-benzothiophen-3-yl}formamido)propanamide], less than 1000 nM; to `Cc1ncsc1COc1ccc2sc(C)c(C(=O)NC3(C(N)=O)CCOCC3)c2c1` [Cpd 033, 4-{2-methyl-5-[(4-methyl-1,3-thiazol-5-yl)methoxy]-1-benzothiophene-3-amido}oxane-4-carboxamide], less than 1000 nM.
Turning to `Cc1sc2ccc(OCC3CCOCC3)cc2c1C(=O)NC(C)(CO)C(N)=O` (single isomer, unassigned) [Cpd 067 - En1, 3-hydroxy-2-methyl-2-({2-methyl-5-[(oxan-4-yl)methoxy]-1-benzothiophen-3-yl}formamido)propanamide], the IC50 is more than 20000 nM.
In turn, `Cc1sc2ccc(OCc3ccccc3)cc2c1C(=O)NC(C)(C)C(N)=O` [Cpd 062, 2-{[5-(benzyloxy)-2-methyl-1-benzothiophen-3-yl]formamido}-2-methylpropanamide] registered an IC50 of less than 1000 nM.
Next, `Cc1sc2ccc(OCc3cccnc3O)cc2c1C(=O)NC(C)(C)C(N)=O` [Cpd 066, 2-({5-[(2-hydroxypyridin-3-yl)methoxy]-2-methyl-1-benzothiophen-3-yl}formamido)-2-methylpropanamide]: less than 1000 nM; `Cc1sc2ccc(OCc3ccccc3)cc2c1C(=O)NCC(C)(C)O` [Cpd 100, 5-(benzyloxy)-N-(2-hydroxy-2-methylpropyl)-2-methyl-1-benzothiophene-3-carboxamide]: 1000 to 20000 nM.
Take `Cc1sc2ccc(OCC3COC3)cc2c1C(=O)NC(C)(CO)C(N)=O` (single isomer, unassigned) [Cpd 068 - En1, 3-hydroxy-2-methyl-2-({2-methyl-5-[(oxetan-3-yl)methoxy]-1-benzothiophen-3-yl}formamido)propanamide]: the IC50 is more than 20000 nM.
`Cc1sc2ccc(OCc3cccnc3C(F)(F)F)cc2c1C(=O)O` [Cpd 109, 2-methyl-5-{[2-(trifluoromethyl)pyridin-3-yl]methoxy}-1-benzothiophene-3-carboxylic acid] showed an IC50 of less than 1000 nM.
The molecule `Cc1ncsc1COc1ccc2sc(C)c(C(=O)NC3(CO)CCC3)c2c1` [Cpd 035, N-[1-(hydroxymethyl)cyclobutyl]-2-methyl-5-[(4-methyl-1,3-thiazol-5-yl)methoxy]-1-benzothiophene-3-carboxamide] displayed an IC50 of less than 1000 nM.
To `Cc1sc2ccc(OCc3ccccn3)cc2c1C(=O)NC(C)(C)C(N)=O` [Cpd 064, 2-methyl-2-({2-methyl-5-[(pyridin-2-yl)methoxy]-1-benzothiophen-3-yl}formamido)propanamide] belongs less than 1000 nM; to `Cc1sc2ccc(OCc3cccnc3O)cc2c1C(=O)N[C@@H](CO)C(N)=O` [Cpd 054, (2S)-3-hydroxy-2-({5-[(2-hydroxypyridin-3-yl)methoxy]-2-methyl-1-benzothiophen-3-yl}formamido)propanamide], 1000 to 20000 nM.
The molecule `Cc1ncsc1COc1ccc2sc(C)c(C(=O)NCc3cccc(O)n3)c2c1` [Cpd 047, N-[(6-hydroxypyridin-2-yl)methyl]-2-methyl-5-[(4-methyl-1,3-thiazol-5-yl)methoxy]-1-benzothiophene-3-carboxamide] registered a half-inhibitory concentration (IC50) of less than 1000 nM.
Consider `Cc1sc2ccc(OCc3ccccc3)cc2c1C(=O)NCC1CCC(=O)N1` (centres unmarked) [Cpd 102, 5-(benzyloxy)-2-methyl-N-[(5-oxopyrrolidin-2-yl)methyl]-1-benzothiophene-3-carboxamide], for which the IC50 was in the range of 1000 to 20000 nM.
`Cc1sc2ccc(OCc3cccnc3C(F)(F)F)cc2c1C(=O)NCC1CCC(=O)N1` (centres unmarked) [Cpd 103, 2-methyl-N-[(5-oxopyrrolidin-2-yl)methyl]-5-{[2-(trifluoromethyl)pyridin-3-yl]methoxy}-1-benzothiophene-3-carboxamide] registered a half-maximal inhibitory concentration (IC50) of less than 1000 nM.
To `Cc1sc2ccc(OCc3ccccc3F)cc2c1C(=O)NC1(CO)CCC1` [Cpd 077, 5-[(2-fluorophenyl)methoxy]-N-[1-(hydroxymethyl)cyclobutyl]-2-methyl-1-benzothiophene-3-carboxamide] belongs less than 1000 nM.
As for `Cc1sc2ccc(OCc3cccnc3C(F)(F)F)cc2c1C(=O)NC1CCNC1=O` (centres unmarked) [Cpd 094, 2-methyl-N-(2-oxopyrrolidin-3-yl)-5-{[2-(trifluoromethyl)pyridin-3-yl]methoxy}-1-benzothiophene-3-carboxamide], the IC50 was less than 1000 nM.
Next, `Cc1sc2ccc(OCc3cccnc3O)cc2c1C(=O)N[C@@H](C)C(N)=O` [Cpd 010, (2S)-2-({5-[(2-hydroxypyridin-3-yl)methoxy]-2-methyl-1-benzothiophen-3-yl}formamido)propanamide]: less than 1000 nM.
To `Cc1sc2ccc(OCc3ccccc3)cc2c1C(=O)O` [Cpd 108, 5-(benzyloxy)-2-methyl-1-benzothiophene-3-carboxylic acid] belongs less than 1000 nM.
Next, `Cc1sc2ccc(OCc3cccnc3C(F)(F)F)cc2c1C(=O)NCC(C)(C)O` [Cpd 101, N-(2-hydroxy-2-methylpropyl)-2-methyl-5-{[2-(trifluoromethyl)pyridin-3-yl]methoxy}-1-benzothiophene-3-carboxamide]: less than 1000 nM.

Values taken from patent US20250346569A1, “NEW DERIVATIVES FOR TREATING TRPM3 MEDIATED DISORDERS” (Katholieke Universiteit Leuven, priority 2022, published 2025).
